One assay has as its target T1, human M5 mAChR (Homo sapiens, UniProt P08912).
T1 sequence (P08912 1-532): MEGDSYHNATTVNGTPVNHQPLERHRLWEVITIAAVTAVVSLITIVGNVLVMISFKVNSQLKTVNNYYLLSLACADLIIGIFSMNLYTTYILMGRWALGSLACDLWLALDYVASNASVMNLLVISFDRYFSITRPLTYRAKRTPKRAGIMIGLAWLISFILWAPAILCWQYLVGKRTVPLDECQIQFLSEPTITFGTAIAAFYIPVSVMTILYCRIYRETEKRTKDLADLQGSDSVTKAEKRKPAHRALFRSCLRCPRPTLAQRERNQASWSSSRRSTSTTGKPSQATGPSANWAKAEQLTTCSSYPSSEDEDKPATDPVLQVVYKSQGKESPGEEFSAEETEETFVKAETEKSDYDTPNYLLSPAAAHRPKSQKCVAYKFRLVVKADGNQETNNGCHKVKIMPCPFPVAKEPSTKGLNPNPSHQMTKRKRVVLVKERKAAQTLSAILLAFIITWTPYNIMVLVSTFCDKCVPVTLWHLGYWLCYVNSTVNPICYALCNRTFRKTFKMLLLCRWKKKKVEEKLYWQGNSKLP
Description: [3H]NMS binding, CHO cell membranes expressing human M5 mAChR.

A further assay deals with mAChRs. The experiment in a line: [3H]DA release assay, superfused rat striatal slices.
The target in a further assay is human M3 mAChR (Homo sapiens, UniProt P20309). Conditions: [3H]NMS binding assay; ref [36],[43]; cited from earlier work.
In the next assay the test system is M3 mAChR. Conditions: ref [36],[43]; cited from earlier work.

Each structure is given as a SMILES string. “Also recorded” adds a separate entry of the source.

human M3 mAChR, sequence (P20309 whole entry): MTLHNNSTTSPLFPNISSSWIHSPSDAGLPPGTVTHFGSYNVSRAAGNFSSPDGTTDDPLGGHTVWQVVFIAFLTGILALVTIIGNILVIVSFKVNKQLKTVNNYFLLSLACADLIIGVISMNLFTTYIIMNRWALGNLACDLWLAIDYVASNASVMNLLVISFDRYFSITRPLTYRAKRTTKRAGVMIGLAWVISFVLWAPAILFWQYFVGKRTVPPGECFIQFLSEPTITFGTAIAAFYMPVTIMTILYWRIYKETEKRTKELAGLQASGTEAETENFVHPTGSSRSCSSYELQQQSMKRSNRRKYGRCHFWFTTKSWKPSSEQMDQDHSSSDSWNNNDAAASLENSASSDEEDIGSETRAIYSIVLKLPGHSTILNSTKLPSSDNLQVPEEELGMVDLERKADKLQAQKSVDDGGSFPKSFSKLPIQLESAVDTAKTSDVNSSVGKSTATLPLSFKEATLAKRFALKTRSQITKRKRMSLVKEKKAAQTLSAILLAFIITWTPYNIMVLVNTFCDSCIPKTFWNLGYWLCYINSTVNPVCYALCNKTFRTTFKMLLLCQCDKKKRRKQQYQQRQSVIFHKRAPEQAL

For the compound `O=C(OC1CN2CCC1CC2)N(CCc1ccc(F)cc1)c1ccccc1` (racemic) [Compound 3c, (±)-quinuclidin-3-yl-(4-fluorophenethyl)(phenyl)carbamate], at human M5 mAChR, the “fold higher affinity for M5 mAChRs compared to compound 1” value came out at 1200 fold. Moreover, the “effect on oxotremorine-evoked [3H]DA overflow” value in the assay with mAChRs (oxotremorine 100 μM, 3c 0.1, 1, 10 μM, significant at 10 μM) was “augmented oxotremorine-evoked [^3H]DA overflow; also recorded: augmented release evoked by oxotremorine; also recorded: augmented oxotremorine-evoked DA release”. For the compound `O=C1CCCN1CC#CCN1CCCC1` [oxotremorine], the “effect on [3H]DA overflow compared to control” value with mAChRs (oxotremorine 100 μM) was “increased [^3H]DA overflow”. As for `Nc1cccc(CN2CCC(NC(=O)[C@](O)(c3ccccc3)[C@@H]3CCC(F)(F)C3)CC2)n1` [compound A, (2R)-N-[1-(6-aminopyridin-2-ylmethyl)piperidin-4-yl]-2-[(1R)-3,3-difluorocyclopentyl]-2-hydroxy-2-phenylacetamide], the “selectivity for M3 over M2” value on human M3 mAChR is 193 fold. In addition, the “effect on carbachol-induced contraction of the isolated rat tracheal muscle” value with M3 mAChR is recorded as “inhibition”. On to `O=C(NCC1CCNCC1)[C@H]1CCCN1C(=O)[C@@H]1C[C@@H](O)CN1C(=O)CC(c1ccc(F)cc1)(c1ccc(F)cc1)c1ccc(F)cc1` [compound 14a, (2R)-1-((2S,4R)-4-hydroxy-1-[3,3,3-tris(4-fluoro-phenyl)propanoyl]-pyrrolidine-2-yl)carbonyl-N-(4-piperidinyl-methyl)pyrrolidine-2-carboxamide], for which, at human M3 mAChR, the “selectivity for M3 over M2” value is listed as 1600 fold. Further, the “effect on carbachol-induced contraction of the isolated rat tracheal muscle” value with M3 mAChR is “inhibition”. As for `CN1[C@@H]2C[C@H](OC(=O)[C@H](CO)c3ccccc3)C[C@H]1[C@@H]1O[C@@H]12` [scopolamine], the “effect on 3c-evoked [3H]DA overflow” value in the assay on mAChRs (scopolamine 10 μM, 3c 10 μM) is given as “inhibited”.
